Common to all, as to format: in vivo
For test [1], the system named is sensory panel. Put plainly: Isointensity triangle test, S-substituted peptides in sodium salt solution (30 mmol/L NaCl), Example 1a. As to conditions: compound 10 mmol/L in aqueous NaCl 30 mmol/L, pH 6.5; reference without additive 30 mmol/L. The method, then: Unless otherwise indicated, all sensory tests are triangle tests and are performed according to the guidelines in “[…] von […]-und Bedarfsgegenständegesetz)”; L 00.90 7, Untersuchung von Lebensmitteln, Sensorische […] Deutschen Norm DIN ISO 4120, Ausgabe Januar 1995), as follows: The sensory panel is trained to evaluate the taste of aqueous solutions (4 ml each) of the following standard taste compounds by using a triangle test as described in the literature ([…] and Belitz, Z. Lebensm. Unters. Forsch., 1975,159, 65-72): sucrose (40 mmol/L) for sweet taste; citric acid (5 mmol/L) for sour taste; […] All sensory analyses are performed in a sensory panel room at 22-25° C. over three different sessions by a trained panel of 8 to 10 individuals. For recording the taste profiles, samples are prepared as indicated in the examples below. Taste profiles of samples are determined in a triangle test in three different sessions. Panellists refrain from eating or drinking for at least 1 hour prior to the session. At the start of the session and before each trial, the subject rinsed with water and expectorated. The participants receive a set of two blanks and one taste sample. Liquid samples are swirled around in the mouth briefly and expectorated. Solid samples are chewed for 20 seconds and then expectorated. […] Each sample with additive is compared to two reference samples without additives. Kokumi intensity is rated from 0-5 according to a scale from 0 to 5 (with 5 most intensive). The additive is added to a consumable and the sample is homogenised. The samples are presented to the sensory panel directly after homogenisation. The sensory panel included 6-8 trained individuals with exception of example 4, here the panel consists of 10 trained individuals. The compounds listed in the table below are dissolved in an aqueous solution (pH 6.5) of NaCl (30 mmol/L).

Test [2] relates to sensory panel. Put plainly: Sensory triangle test in chicken broth, Examples 3a and 3b. The conditions noted are these: for Sensory results (compared to 1): chicken broth, Example 3b; for Kokumi Intensity (0-5): scale 0 to 5, 5 most intensive, reference 2. The method, then:
(§1) Unless otherwise indicated, all sensory tests are triangle tests and are performed according to the guidelines in “Amtliche Sammlung von Untersuchungsverfahren nach § 35 LMBG (Lebensmittel-und Bedarfsgegenständegesetz)”; L 00.90 7, Untersuchung von Lebensmitteln, Sensorische Prüfverfahren, Dreiecksprüfung (Übernahme der gleichnahmigen Deutschen Norm DIN ISO 4120, Ausgabe Januar 1995), as follows:
The sensory panel is trained to evaluate the taste of aqueous solutions (4 ml each) of the following standard taste compounds by using a triangle test as described in the literature (Wieser and Belitz, Z. Lebensm. Unters. Forsch., 1975,159, 65-72): sucrose (40 mmol/L) for sweet taste; citric acid (5 mmol/L) for sour taste; NaCl (12 mmol/L) for salty taste; caffeine (2 mmol/L) for bitter taste; and monosodium glutamate (MSG; 6 mmol/L) for umami taste. For kokumi taste, a solution of glutathione (10 mmol/L) in diluted chicken broth concentrate (Goumet Bouillon Huhn, Maggi, Singen, Germany; 3 g/100 g bottled water (Evian®)) is prepared and compared to the taste of chicken broth with no glutathione added.
(§2) For recording the taste profiles, samples are prepared as indicated in the examples below. Taste profiles of samples are determined in a triangle test in three different sessions. Panellists refrain from eating or drinking for at least 1 hour prior to the session. At the start of the session and before each trial, the subject rinsed with water and expectorated. The participants receive a set of two blanks and one taste sample. Liquid samples are swirled around in the mouth briefly and expectorated. Solid samples are chewed for 20 seconds and then expectorated. […] Each sample with additive is compared to two reference samples without additives. Kokumi intensity is rated from 0-5 according to a scale from 0 to 5 (with 5 most intensive). The additive is added to a consumable and the sample is homogenised. The samples are presented to the sensory panel directly after homogenisation. The sensory panel included 6-8 trained individuals with exception of example 4, here the panel consists of 10 trained individuals.
Chicken broth is prepared by diluting 3 g of a chicken broth concentrate (Gourmet Bouillon Huhn, Nestle) with 100 ml water. Additives are added as specified in table below in a concentration of 10 mmol/L. The pH-value of all samples is adjusted to 6.5 using formic acid (0.1 mol/L) or sodium hydroxide (0.1 mol/L).
Kokumi intensity is rated according to a scale from 0 to 5 (with 5 most intensive). […] The additive is added to a consumable and the sample is homogenised.
The samples are presented to the sensory panel directly after homogenisation. The sensory panel included 8 trained individuals.
The samples are tested as described above in example 3a.

In test [3] the test system is sensory panel. As to the kind of experiment: Sensory test in cream cheese, Example 4. The conditions noted are these: for Sensory results compared to 2: versus NaCl Reference (2000 ppm); for Sensory results (compared to 1): versus reference without additives. Here is the method: as §1, §2
Samples are compared by a panel of 10 trained panelists.

Test [4] concerns sensory panel. Put plainly: Isointensity triangle test in sodium and potassium salt solution (30 mmol/L NaCl, 15 mmol/L KCl), Example 1b. The conditions noted are these: NaCl 30 mmol/L + KCl 15 mmol/L, salt enhancer 10 mmol/L; without enhancer 40 mmol/L. The method, then:
Unless otherwise indicated, all sensory tests are triangle tests and are performed according to the guidelines in “[…] von […]-und Bedarfsgegenständegesetz)”; L 00.90 7, Untersuchung von Lebensmitteln, Sensorische […] Deutschen Norm DIN ISO 4120, Ausgabe Januar 1995), as follows: For recording the taste profiles, samples are prepared as indicated in the examples below. Taste profiles of samples are determined in a triangle test in three different sessions. Panellists refrain from eating or drinking for at least 1 hour prior to the session. At the start of the session and before each trial, the subject rinsed with water and expectorated. The participants receive a set of two blanks and one taste sample. Liquid samples are swirled around in the mouth briefly and expectorated. Solid samples are chewed for 20 seconds and then expectorated. […] Each sample with additive is compared to two reference samples without additives. Kokumi intensity is rated from 0-5 according to a scale from 0 to 5 (with 5 most intensive). The additive is added to a consumable and the sample is homogenised. The samples are presented to the sensory panel directly after homogenisation. […] KCl is often used in small concentrations to reduce sodium without loss of salty taste. […] For the samples compared and the results see the table below.

Test [5] deals with sensory panel. Put plainly: Sensory test in ketchup, Example 5. The conditions noted are these: additive 500 ppm. Here is the method:
as §1
as §2, with “The sensory panel included 6-8 trained individuals with exception of example 4, here the panel consists of 10 trained individuals.” left out

Take `N[C@@H](CCC(=O)N[C@@H](CSCCC(=O)O)C(=O)NCC(=O)O)C(=O)O` [β-S-(carboxyethyl) γ-L-glutamyl-L-cysteinyl-glycine]: the “concentration of an isointense NaCl-solution” value (from here on “concentration”) in the test with sensory panel [1] is 38 mmol/L. The same measure, in the same setting: to `CCOC(=O)[C@@H](N)CSC(CC(=O)O)C(=O)O` (stereo partly drawn) [S-(α,β-dicarboxyethyl) cysteine ethyl ester] belongs 42 mmol/L.

For `N[C@@H](CCC(=O)O)C(=O)[O-].[Na+]` [MSG, monosodium glutamate], the “Sensory results (compared to 1)” value with sensory panel [2] (additive 2000 ppm) is listed as “Higher umami intensity”. Regarding `CCOC(=O)C(CSC(CC(=O)O)C(=O)O)NC(=O)CC[C@H](N)C(=O)O` (stereo partly drawn) [S-(α,β-dicarboxyethyl) γ-L-glutamyl-cysteine ethyl ester], the “concentration” value with sensory panel [1] amounted to 48 mmol/L. On the same count and under the same terms, then `COC(=O)[C@@H](N)CSC(CC(=O)O)C(=O)O` (stereo partly drawn) [S-(α,β-dicarboxyethyl) cysteine methyl ester], with 38 mmol/L. As for `N[C@@H](CSC(CC(=O)O)C(=O)O)C(=O)O` (stereo partly drawn) [S-(α,β-dicarboxyethyl)-L-cysteine, S-(α,β-dicarboxyethyl) cysteine], the “concentration” value in the test on sensory panel [1] stood at 40 mmol/L. Besides, the “Sensory results (compared to 1)” value in the test on sensory panel [2] (additive 400 ppm) is reported as “More salty”. Moreover, in the test with sensory panel [3] (additive 1000 ppm), the “Sensory results compared to 2” value is “Slightly more salty” and the “Sensory results (compared to 1)” value was “More salty”.

`[Cl-].[Na+]` [NaCl, sodium chloride, reference compound]: the “Sensory results (compared to 1)” value with sensory panel [2] (additive 2000 ppm) and in the test with sensory panel [3] (additive 2000 ppm) was “More salty” each time. With `N[C@@H](CCC(=O)N[C@@H](CSC(CCC(=O)O)C(=O)O)C(=O)NCC(=O)O)C(=O)O` (stereo partly drawn) [β-S-(α,γ-dicarboxypropyl) γ-L-glutamyl-L-cysteinyl-glycine], the “concentration” value in the test on sensory panel [1] is on record as 48 mmol/L.

`N[C@@H](CCC(=O)N[C@@H](CSC(CC(=O)O)C(=O)O)C(=O)NCC(=O)O)C(=O)O` (stereo partly drawn) [S-(α,β-dicarboxyethyl) γ-L-glutamyl-L-cysteinyl-glycine]: the “concentration” value stood at 48 mmol/L with sensory panel [1] and 57 mmol/L in the test on sensory panel [4]. For the same compound, in the test with sensory panel [2] (chicken broth pH 6.5, additive 400 ppm), the “Kokumi Intensity (0-5)” value is on record as 3.5. The “Sensory results compared to 2” value in the test on sensory panel [3] (additive 1000 ppm) is recorded as “greater effect on saltiness than the addition of NaCl”. Besides, the “Sensory results (compared to 1)” value in the test on sensory panel [5] is recorded as “Slightly more salty”.

In the case of `N[C@@H](CCC(=O)N[C@@H](CSC(CC(=O)O)C(=O)O)C(=O)O)C(=O)O` (stereo partly drawn) [S-(α,β-dicarboxyethyl) γ-L-glutamyl-cysteine], in the test with sensory panel [1], the “concentration” value came to 60 mmol/L. Further, the “Sensory results compared to 2” value in the test with sensory panel [3] (additive 1000 ppm) is listed as “greater effect on saltiness than the addition of NaCl”.

For the compound `N[C@@H](CCC(=O)N[C@@H](CS)C(=O)NCC(=O)O)C(=O)O` [GSH reduced, glutathione], the “Kokumi Intensity (0-5)” value in the test with sensory panel [2] (chicken broth pH 6.5, additive 10 mmol/L) came to 3.5.

Values taken from patent publication US20090155440A1, “Salt Enhancing Compounds and Use” (GIVAUDAN SA, priority 2005, published 2009).
